What was measured:
[1] = tested on: peripheral blood T cells; assay: Hoechst 33342 apoptosis assay, peripheral blood T cells; assay type: cell-based, human; conditions: 10 μM rolipram
Protocol: Magnetic bead purified peripheral blood T cells or leukemic cells from patients with B-CLL or Sezary syndrome were cultured in media alone or with a dose titration of hydrocortisone (solid line), followed by assessment for apoptosis by Hoechst 33342 FACS analysis at 48 hours. Using the same experimental conditions, the effect of addition of 10 μM rolipram (thick dashed line) or 10 μM rolipram and 40 μM forskolin (dotted line) was also assessed. The SEM of triplicate samples is shown; where not visible, the SEM was less than 1.0%.
CCRF-CEM cells were obtained from ATCC^27. Leukemic or normal mononuclear cells were obtained by centrifugation over Histopaque 1077 (Sigma Chemical Company, St. Louis, Mo.). For purification of T cells, whole mononuclear cells from normal subjects were incubated with magnetic beads coated with appropriate antibodies, then positively purified using a magnet (Miltenyi). […]
Hoechst 33342 and DiOC6(3) apoptosis assays were performed as previously described^22,28. […] The absorbance (O.D.) of the formazan product was determined at 492 nm using a plate reader (Titertek Multiscan Plus, Labsystems). Percent cell viability was calculated as follows: (O.D. control sample−O.D. blank)/(O.D. test sample−O.D. blank)×100. […]

[2] = tested on: GRE luciferase constructs transiently transfected into B-CLL cells; assay: GRE luciferase transactivation in B-CLL cells; assay type: cell-based, human
Protocol: B-CLL cells (FIG. 3A) or CCRF-CEM cells (FIG. 3B) were transiently transfected with a luciferase construct in which expression is regulated by GRE elements, followed by culture in 10 μM rolipram (R), 40 μM forskolin (Fsk), 1 μM hydrocortisone (HC), 1 mM Rp-8Br-cAMPS (Rp-8Br) or combinations of these agents. 12 hours after addition of the drugs, the relative luminescence of the samples was determined. The data shown are the mean of 8 experiments for B-CLL and two experiments for CCRF-CEM cells. The single asterisk denote a significant difference by paired student's t test between HC alone and either R/HC (FIG. 3A) or F/HC (FIG. 3B) (p<0.02). The double asterisk denotes a significant difference between Rp-8Br-cAMPS/HC and HC alone (p<0.02).
An MMTV GRE luciferase construct, originally created by Dr. R. Evans, was a gift from Dr. Remco Spanjaard (Dept. of Otolaryngology, Boston Medical Center)^29. 100 million B CLL cells in 200 μl of PBS were added to 500 μl of Nucleofector Solution D containing 30 μg of endotoxin-free (Qiagen) MMTV luciferase constructs. 100 μl was used per transfection using a Nucleofector electroporation instrument (Amaxa Biosystems, Koeln, Germany) using program U16. […] Up to six such aliquots of transfected cells were diluted in media and pooled, prior to distribution of 8 million cells/well in 48 well plates. Two hours after transfection, drugs, cytokines or vehicle alone were added to the transfected cells. 14 hours after transfection, samples were processed using a luciferase assay kit (Promega). Triplicate samples were analyzed with an MGM Instruments Optocomp I luminometer (Hamden, Conn.). Analysis of cell viability (trypan blue exclusion) and total protein (Pierce) verified that equivalent numbers of viable B-CLL cells were analyzed. 100 million CCRF-CEM cells were similarly transfected, cultured and analyzed except that Nucleofector program O17 was utilized. […] Data were analyzed using a two-sided paired t test for means.

[3] = tested on: PDE4; conditions: cited from earlier work

COc1ccc(C2CNC(=O)C2)cc1OC1CCCC1 (centres unmarked) [rolipram, 4-(3-cyclopentyloxy-4-methoxyphenyl)-2-pyrrolidone]
augmentation of the apoptotic effect of 1 μM hydrocortisone on T cells [1]: failed to augment | induction of apoptosis in peripheral blood T cells [1]: failed to induce apoptosis | augmentation of hydrocortisone-induced transactivation (average) ([2]; 10 μM rolipram + 1 μM hydrocortisone, 5 patients, p<0.02): 33% | augmentation of GRE transactivation by rolipram itself ([2]; 10 μM rolipram alone, 7/8 experiments, not statistically significant (p<0.23)): 10% | IC50 [3]: […]
